{"source": "patent US20240226066A1", "about": "“CARDIOPROTECTION BY AUTOPHAGY INDUCTION AND METABOLIC REPROGRAMMING” (UNIVERSITE PARIS-SACLAY, priority 2021, published 2024)", "assay_type_in_all_cases": "cell-based, rat", "key": {"RNVCs [1]": {"system": "RNVCs", "test": "Autophagosome formation after GFP-LC3 plasmid transfection (fluorescence microscopy)", "conditions": "GFP-LC3 transfected RNVCs", "procedure": "FIG. 4D: after transfection of the plasmid GFP-LC3, the fluorescent green GFP-LC3 spots were visualized by fluorescence microscopy and quantified with ImageJ to verify autophagosome formation. Data are presented as mean±SEM with single-factor ANOVA, and multiple Sidak comparisons. ***, p<0.001 with respect to 0.01% DMSO.\nOn day 0, 4×10^5 neonatal cardiomyocytes were plated overnight in laminin-coated 35 mm culture dishes (10 μg/ml). On day 1, the cells were transfected with 1 μg of GFP-LC3 plasmid using the transfection reagent Lipofectamine® 2000 (1 μg of GFP-LC3 corresponds to 2.5 μl of transfection reagent), for 48 h, then the green fluorescence was detected with a Leica confocal microscope (SP5). The analyses were carried out with the ImageJ program (Wayne Rasband, National Institutes of Health, USA).\n(§1) Next, the hypothesis that the compounds could protect cardiac cells by activating autophagy, a catabolic process conserved in evolution that involves the degradation of damaged cytoplasmic components, was formulated. […] Then, the cells were treated with the hits and with H2O2 for 2 hours and their survival was analyzed 4 hours later by measuring LDH release (FIGS. 4B, 4C). […] In order to confirm the induction of autophagy by another approach, the RNVCs were transfected with a GFP-LC3 plasmid and the formation of the autophagosome was monitored 24 hours later. […]"}, "LC3II": {"system": "LC3II", "test": "LC3 I/II conversion by western blot in RNVCs", "conditions": "1 μM", "procedure": "FIG. 4E: LC3-I/II protein levels in the RNVCs. Data are presented as mean±SEM with single-factor ANOVA, and multiple Sidak comparisons. *, p<0.05, **, p<0.01 with respect to DMSO.\n(§2) The H9C2 cells and RNVCs were detached in LB containing: 50 mM Tris, 150 mM NaCl, 1 mM EDTA, 0.5% deoxycholate, 1% Triton X 100, 0.1% SDS (pH 8.0). The cells were collected and placed on ice for 30 minutes. The cells were then centrifuged at 2000 g for 20 minutes at for 4° C. The supernatant was transferred to a new tube and stored on ice. The protein concentration was determined by BCA assay. The protein samples were diluted with sample buffer (2× Laemmli, Sigma), mixed, and heated for 5 minutes at 95° C. […] The images were recorded with a gel imaging system (Bio Rad). […]\nas §1"}, "RNVCs [2]": {"system": "RNVCs", "test": "Mitochondrial ROS production with MitoSOX fluorescent probe", "conditions": "1 μM, 6 h", "procedure": "FIG. 12: The RNVCs were treated with 0.1% DMSO, 3 μM rapamycin, 1 μM digitoxigenin, 1 μM digoxin, 1 μM minaprin, 1 μM VP331, 1 μM LOPA87, 10 μM SG6163F for 6 h, then the ROS production was stained with the MitoSOX fluorescent probe.\nThe RNVCs were treated with 0.01% DMSO, 3 μM rapamycin, […], 1 μM digoxin, 1 μM minaprine, 1 μM VP331, 1 μM LOPA87, 10 μM SG6163F in a serum-free cell culture medium for 6 hours. The contents (50 μg) of a MitoSOX™ mitochondrial superoxide indicator vial (ThermoFisher, M36008) were dissolved in 13 μl dimethyl sulfoxide (DMSO) to prepare a 5 mM MitoSOX™ reagent stock solution. Next, the 5 mM MitoSOX™ reagent stock solution in PBS was diluted to prepare a 5 μM working solution of MitoSOX™ reagent. After treatment, the cells were rinsed twice with hot PBS and then incubated with a MitoSOX reagent working solution for 10 minutes at 37° C. The cells were gently rinsed three times with hot PBS. Red fluorescence was detected with a Leica confocal microscope. Nuclear fluorescence was suppressed and mitochondrial fluorescence intensity was measured using ImageJ software.\nROSs are produced or accumulated as a by-product of mitochondrial activity metabolism. Thus, the ROSs may be a consequence of mitochondrial function or may reflect a defect in the mitochondrial antioxidant system."}, "BCL-XL": {"system": "BCL-XL", "test": "Western blot of BCL-XL expression in RNVCs", "conditions": "6 h treatment", "procedure": "Levels of protein expression of BCL-2 (FIG. 3A and FIG. 3B) BXL-XL (FIG. 3C) and BAX (FIG. 3C), in the RNVCs after 6 h of treatment (FIG. 3A, FIG. 3C, FIG. 3D) or 24 h (FIG. 3B). Co., untreated cell control. Each experiment was reproduced at least three times. Representative western blotting images and quantification of three independent experiments are presented as mean±SEM with single-factor ANOVA, with multiple Sidak comparisons. *, p<0.05 with respect to DMSO.\nas §2"}}}
{"compound": "O=C1NC(c2ccccc2)=N/C1=C\\c1cc2ccccc2c2ccccc12", "note": "[SG6163F]", "values": [{"measurement": "formation of autophagosomes", "setting": "RNVCs [1]", "value": "capable of causing the formation of autophagosomes"}, {"measurement": "increase in level of expression of LC3II", "setting": "LC3II", "value": "> 1.5", "unit": "fold"}]}
{"compound": "C[C@]12CC[C@H](O)C[C@H]1CC[C@@H]1[C@@H]2CC[C@]2(C)[C@@H](C3=CC(=O)OC3)CC[C@]12O", "note": "[digitoxigenin]", "values": [{"measurement": "local level of mitochondrial superoxide anion", "setting": "RNVCs [2]", "value": "induced an elevation"}]}
{"compound": "C[C@H]1O[C@@H](O[C@H]2[C@@H](O)C[C@H](O[C@H]3[C@@H](O)CC(O[C@H]4CC[C@@]5(C)[C@H](CC[C@@H]6[C@@H]5C[C@@H](O)[C@]5(C)[C@@H](C7=CC(=O)OC7)CC[C@]65O)C4)O[C@@H]3C)O[C@@H]2C)C[C@H](O)[C@@H]1O", "note": "(stereo partly shown) [digoxin]", "values": [{"measurement": "expression of BCL-XL", "setting": "BCL-XL", "value": "caused a decrease"}]}
